This note sets out measurements from patent US9801917B2, “Composition for improving blood sugar metabolism” (SUNSTAR INC., priority 2013, dated 2017).

The subject of test [1] is mouse skeletal myotube cell line (C2C12 cells). In words: Measurement of sugar uptake-promoting activity (6-NBDG uptake) using skeletal myotube cells. In kind it is cell-based. The conditions noted are these: for sugar uptake-promoting activity (in words): 0.01 mass %, compared with extract C. As to the method:
Mouse skeletal myoblasts (C2C12 cells) were cultured in high-glucose DMEM (5790), and the cells were seeded and cultured in a black microtiter plate (produced by Falcon) at a concentration of 5000 cells/200 μL/well. The cells differentiated into myotubes were used for this experiment. Extract A and extract C obtained in the above Production Example 1 and adjusted to final concentrations of 0.02% and 0.05% were used as samples (Examples 2-1 to 2-4). A medium without any addition (Comparative Example 2-1) was used as a negative control. A medium containing insulin (10 nM) (Comparative Example 2-2) was used as a positive control.
On the day of the experiment, after the media were replaced with low-glucose DMEM (6047), starvation was performed. The media were then replaced with media containing the samples of Examples 2-1 to 2-4 and Comparative Examples 2-1 to 2-2 dissolved therein, and incubation was performed for 60 minutes. After the treatment, the media were removed and replaced with low-glucose DMEM containing 100 μM of a fluorescently labeled nonhydrolyzable sugar analog, 6-(N-(7-nitrobenz-2-oxa-1,3-diazol-4-yl)amino)-6-deoxyglucose (6-NBDG; produced by Invitrogen) dissolved therein. After the reaction was allowed to proceed for 30 minutes, the medium was removed. After washing with PBS, the fluorescence was measured at 444 nm/538 nm emission using a fluorescent plate reader.
The sugar uptake-promoting activity, in skeletal myotube cells, of each of extract C (Example 3-1) obtained in the above Production Example 1, and fractions A to C and insoluble matter (Example 3-5) obtained in the above Production Example 2 (Examples 3-2 to 3-4) was measured in the same manner as in Test Example 1-2. Further, as in Test Example 1-2, a medium with no addition was used as a negative control (Comparative Example 3-1), and a medium containing insulin (10 nM) (Comparative Example 3-2) was used as a positive control. The samples of Examples 3-1 to 3-5 were adjusted to a final concentration of 0.02 mass %.
The sugar uptake-promoting activity, in skeletal myotube cells, of extract C obtained in the above Production Example 1 (Example 4-1) and seven compounds known to be contained in persimmon leaves (Example 4-2 to 4-8), i.e., kaempferol-3-O-glucoside, quercetin-3-O-glucoside, quercetin-3-O-galactoside, (+)-catechin, epigallocatechin gallate, rutin, and gallic acid was measured in the same manner as in Test Example 1-2. Further, as in Test Example 1-2, a medium with no addition was used as a negative control (Comparative Example 4-1), and a medium with insulin (10 nM) was used as a positive control (Comparative Example 4-2). The samples obtained in Example 4-1 to 4-8 were adjusted to a final concentration of 0.01 mass %.
The sugar uptake-promoting effects of extract C obtained in the above Production Example 1 (Example 5-1), fraction B obtained in the above Production Example 2 (Example 5-2), and fractions F to L (Examples 5-3 to 5-9) obtained in the above Production Example 3 on skeletal myotube cells were measured in the same manner as in Test Example 2. A medium with no addition was used as a negative control (Comparative Example 5-1), and media with insulin (10 nM) (Comparative Example 5-2), with insulin (100 nM) (Comparative Example 5-3), and with AICAR (final concentration: 3 mM) (Comparative Example 5-4) were used as positive controls. The samples of Examples 5-1 to 5-9 were adjusted to a final concentration of 0.02 mass %. […]

For another test, the system named is AMP kinase. As to the kind of experiment: Measurement of AMP kinase phosphorylation activity (Western blot pAMPK/tAMPK) in C2C12 cells. It counts as cell-based, mouse. The conditions noted are these: Test Example 1-1; positive control, final concentration 2 mM; relative value, negative control = 1. As to the method: Persimmon leaf extracts A to E (powders) that had been dissolved in media to a final concentration of 0.02% were used as samples (Examples 1-1 to 1-5). A medium without any addition was used as a negative control (Comparative Example 1-1). A medium containing AICAR (final concentration: 2 mM) was used as a positive control (Comparative Example 1-2). Subsequently, a mouse skeletal myotube cell line (C2C12 cells) was seeded onto a 6-well cell culture plate and cultured in a DMEM medium containing 10% fetal bovine serum and a 1% antibacterial agent at 37° C., 5% carbon dioxide for 3 days.
When the cells became confluent, the medium was replaced with a DMEM medium containing 1% fetal bovine serum, and the cells were further cultured and fully differentiated. After the medium was again replaced with a fresh medium, the samples of Examples 1-1 to 1-5 and Comparative Examples 1-1 to 1-2 were added, and the cells were cultured at 37° C., 5% carbon dioxide. […]
The cell lysate was sonicated and then centrifuged to obtain a supernatant. […] The protein concentration of each supernatant was measured. […]
Western blotting was performed in the following manner. […] Chemiluminescence was detected using a CCD camera imager (produced by GE Healthcare). The degree of the activity was expressed as a relative value with the value of the negative control being defined as 1.
A general note: Immunoblotting shows a protein as a band on a membrane.

[2] abbreviates: Test Example 3, final concentration 0.01 mass %, control = 1.00.

Consider `Oc1cc(O)c2c(c1)O[C@H](c1ccc(O)c(O)c1)[C@@H](O)C2` [(+)-catechin], for which the Relative fluorescence intensity in test [1] (setting [2]) came to 1.09.

Regarding `NC(=O)c1ncn([C@@H]2O[C@H](CO)[C@@H](O)[C@H]2O)c1N` [AICAR], in test [1] (Test Example 4, positive control 3 mM, control = 1.00), the Relative fluorescence intensity is 1.96. Moreover, in the test on AMP kinase, the pAMPK/tAMPK ratio is on record as 5.60. With `O=C(O[C@@H]1Cc2c(O)cc(O)cc2O[C@@H]1c1cc(O)c(O)c(O)c1)c1cc(O)c(O)c(O)c1` [Epigallocatechin gallate, epigallocatechin gallate], the “sugar uptake-promoting activity (in words)” value in test [1] (Test Example 3) is given as “as high as Example 4-1”. The compound further gave a Relative fluorescence intensity in test [1] (setting [2]) of 1.70. The like results for `O=C(O)c1cc(O)c(O)c(O)c1` [Gallic acid, gallic acid] were, in that order, “as high as Example 4-1” and 1.69.

`O=c1c(O[C@@H]2O[C@H](CO)[C@@H](O)[C@H](O)[C@H]2O)c(-c2ccc(O)cc2)oc2cc(O)cc(O)c12` [Kaempferol-3-glucoside, kaempferol-3-O-glucoside] gave a Relative fluorescence intensity in test [1] (setting [2]) of 0.91. The same measure, in the same setting: in the case of `O=c1c(O[C@@H]2O[C@H](CO)[C@H](O)[C@H](O)[C@H]2O)c(-c2ccc(O)c(O)c2)oc2cc(O)cc(O)c12` [Quercetin-3-galactoside, quercetin-3-O-galactoside] it was 0.70.

Regarding `O=c1c(O[C@@H]2O[C@H](CO)[C@@H](O)[C@H](O)[C@H]2O)c(-c2ccc(O)c(O)c2)oc2cc(O)cc(O)c12` [Quercetin-3-glucoside, quercetin-3-O-glucoside], the “sugar uptake-promoting activity (in words)” value in test [1] (Test Example 3) is on record as “as high as Example 4-1”. In addition, the Relative fluorescence intensity in test [1] (setting [2]) was 2.26. As to `C[C@@H]1O[C@@H](OC[C@H]2O[C@@H](Oc3c(-c4ccc(O)c(O)c4)oc4cc(O)cc(O)c4c3=O)[C@H](O)[C@@H](O)[C@@H]2O)[C@H](O)[C@H](O)[C@H]1O` [Rutin, rutin], in test [1] (setting [2]), the Relative fluorescence intensity was 0.91. For insulin, the Relative fluorescence intensity in test [1] (Test Example 1-2, positive control 10 nM, no addition = 1.00) worked out at 1.32; in test [1] (Test Example 2, positive control 10 nM, no addition = 1.00) it was 1.25; in test [1] (Test Example 3, positive control 10 nM, control = 1.00) it was 1.43; in test [1] (Test Example 4, positive control 10 nM, control = 1.00) it was 1.62; in test [1] (Test Example 4, positive control 100 nM, control = 1.00), 1.74.
